Patent US12419307B2, “Mixtures comprising indazole pesticides” (FMC Corporation, priority 2019, dated 2025)
Where two headings read alike, the source gives them in different places.

Legend:
Assay type in all cases: in vivo
[1] = system: Western Flower Thrips (Frankliniella occidentalis Pergande); experiment: Test B: Western Flower Thrips control on bean plants, plant damage rating converted to % plant protection after 7 days; conditions: for Plant Damage (obs): Table 3a; for Plant Damage (obs) / Plant Protection (obs): applied alone
Procedure, shortened: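 Sprayed 5- to 7-day-old bean (var. Soleil) plants, 3 replicates, dried 1 h, then infested with 22 to 27 adult thrips and held 7 days at 25° C, 45-55% RH. Feeding damage rated 0-10 and converted as 100−(rating×10) to % plant protection.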

[2] = system: corn planthopper (Peregrinus maidis (Ashmead)); experiment: Test C: corn planthopper control on corn plants, insect mortality after 6 days; conditions: Peregrinus maidis, read-out: % Mortality (obs)
Protocol: (§1) The pest control protection afforded by the mixtures or compositions is not limited, however, to these species. The analysis of enhanced activity between the mixtures or compositions was determined using Colby's equation. The average % mortality data for the test compounds alone were inserted into the Colby's equation. If the observed (obs) average % mortality was higher than “p”, the expected (exp) % mortality, the mixture or composition had enhanced effects. If the observed average % mortality was equal to or lower than the expected mortality, the mixture or composition either had no enhanced effect. For bioassays where insect feeding damage was evaluated, enhanced activity is identified when the observed plant damage is less than the expected plant damage rating; ratings ranged between 0 (no damage) and 10 (dead plant) and each value was converted to a % plant protection. 100−(Obs Plant Damage*10)
For evaluating control of corn planthopper (Peregrinus maidis (Ashmead)) through contact and/or systemic means, the test unit consisted of a small open container with a 3-4-day-old corn (maize) plant inside. White sand was added to the top of the soil prior to application of the test compound.
Test compounds were formulated and sprayed at 250 and/or 50 ppm and/or 10 ppm. After spraying of the formulated test compound, the test units were allowed to dry for 1 h before they were post-infested with ˜15-20 nymphs (18-to-21-day-old). […]

[3] = system: diamondback moth (Plutella xylostella L.); experiment: Test E: diamondback moth control through ingestion only, sprayed cabbage leaf tissue (Dipel), mortality after 4 days; conditions: Table 6c, read-out: % Mortality (obs)
Protocol: as §1
For evaluating control of diamondback moth (Plutella xylostella L.) through ingestion only, the test substance Dipel® (active ingredient Bacillus thuringiensis kurstaki) was formulated by diluting in water and then adding an MSO based adjuvant at 0.1% v/v. Cabbage plants were sprayed with Dipel® to runoff and allowed to dry for three hours. Once dry, plants leaf tissue was excised and one piece was placed into one well in an eight well tray. Test units were maintained in a growth chamber at 24-25° C. and 70% relative humidity.

[4] = system: fall armyworm (Spodoptera frugiperda (J. E. Smith)); experiment: Test E: fall armyworm control on corn plants, plant damage rating and mortality after 6 days; conditions: Spodoptera frugiperda, 144 h, read-out: Plant Protection (obs)
Protocol: as §1
For evaluating control of fall armyworm (Spodoptera frugiperda (J. E. Smith)) the test unit consisted of a small open container with a 4-5-day-old corn (maize) plant inside. This was pre-infested with 10-15 1-day-old larvae on a piece of insect diet. Test compounds were formulated and sprayed with 3 replications as described for Test A. After spraying of the formulated test compound, the test units were maintained in a growth chamber for 6 days at 25° C. and 70% relative humidity. Plant feeding damage was then visually assessed based on foliage consumed, and larvae were assessed for mortality. Each test unit was then visually assessed for plant damage and rated 0-10, where 0=undamaged and 10=plant is dead; the results are listed in Tables 6d-i.

CC1(NC(=O)c2cccc3nn(-c4cccnc4)cc23)CC1 [Cpd 4, N-(1-methylcyclopropyl)-2-(3-pyridinyl)-2H-indazole-4-carboxamide] showed a pest or weed control at 11.1 ppm ([1]; Frankliniella occidentalis, 168 h, Table 3e, 11.1 ppm, read-out: Plant Protection (obs)) of 60%, a pest or weed control at 36.8 ppm ([1]; Frankliniella occidentalis, 168 h, Table 3e, 36.8 ppm, read-out: Plant Protection (obs)) of 76.7% and a pest or weed control at 11.1 ppm ([1]; Frankliniella occidentalis, 168 h, Table 3f, 11.1 ppm, read-out: Plant Protection (obs)) of 73.3%. It also gave a pest or weed control at 36.8 ppm ([1]; Frankliniella occidentalis, 168 h, Table 3f, 36.8 ppm, read-out: Plant Protection (obs)) of 90%, a pest or weed control at 11.1 ppm ([1]; Frankliniella occidentalis, 168 h, Table 3g, 11.1 ppm, read-out: Plant Protection (obs)) of 20% and a pest or weed control at 36.8 ppm ([1]; Frankliniella occidentalis, 168 h, Table 3g, 36.8 ppm, read-out: Plant Protection (obs)) of 73.3%. For the same compound, the pest or weed control at 2.93 ppm ([1]; Frankliniella occidentalis, 168 h, Table 3d, 2.93 ppm, read-out: Plant Protection (obs)) was 50%, the pest or weed control at 11.1 ppm ([1]; Frankliniella occidentalis, 168 h, Table 3d, 11.1 ppm, read-out: Plant Protection (obs)) was 60% and the pest or weed control at 16.1 ppm ([1]; Frankliniella occidentalis, 168 h, Table 3d, 16.1 ppm, read-out: Plant Protection (obs)) was 86.7%. For the same compound, the pest or weed control at 36.8 ppm ([1]; Frankliniella occidentalis, 168 h, Table 3d, 36.8 ppm, read-out: Plant Protection (obs)) was 93.3%, the “Plant Damage (obs)” value ([1]; 11.1 ppm) was 43.3% and the “Plant Damage (obs)” value ([1]; 36.8 ppm) was 86.7%. For the same compound, the “Plant Protection (obs)” value ([1]; Table 3b, 11.1 ppm) was 40.0%, the “Plant Protection (obs)” value ([1]; Table 3b, 36.8 ppm) was 86.7% and the “Plant Protection (obs)” value ([1]; Table 3c, 11.1 ppm) was 36.7%. The “Plant Protection (obs)” value ([1]; Table 3c, 36.8 ppm) was 70.0%, the mortality at 50 ppm ([2]; 96 h, Table 4d) was 0% and the mortality at 250 ppm ([2]; 96 h, Table 4d) was 9.1%. The mortality at 50 ppm ([2]; Table 4e) was 38.9%, the mortality at 250 ppm ([2]; Table 4e) was 34.8% and the mortality at 50 ppm ([2]; Table 4f) was 1.8%. For the same compound, the mortality at 250 ppm ([2]; Table 4f) was 10.8%, the mortality at 50 ppm ([2]; Table 4g) was 1.8% and the mortality at 250 ppm ([2]; Table 4g) was 10.8%. For the same compound, the mortality at 50 ppm ([3]; 50 ppm) was 12.5%, the mortality at 250 ppm ([3]; 250 ppm) was 17% and the pest or weed control at 50 ppm ([4]; Table 6e) was 0%. The pest or weed control at 250 ppm ([4]; Table 6e) was 0%, the pest or weed control at 50 ppm ([4]; Table 6f) was 0% and the pest or weed control at 250 ppm ([4]; Table 6f) was 0%. The pest or weed control at 50 ppm ([4]; Table 6g) was 0%, the pest or weed control at 250 ppm ([4]; Table 6g) was 20% and the pest or weed control at 50 ppm ([4]; Table 6i) was 0%. For the same compound, the pest or weed control at 250 ppm ([4]; Table 6i) was 0%, the pest or weed control at 50 ppm ([4]; Table 6h) was 0% and the pest or weed control at 250 ppm ([4]; Table 6h) was 20%. It also gave a pest or weed control at 50 ppm ([4]; Table 6d) of 0% and a pest or weed control at 250 ppm ([4]; Table 6d) of 0%.
